One test concerns Trypanosoma cruzi. Description: Trypanocidal activity against Trypanosoma cruzi Y strain bloodstream trypomastigotes isolated from infected in Albino Swiss mouse assessed as lysis of parasite in presence of 5 % mouse blood incubated for 24 hrs by Neubauer chamber method. The class given is functional, organism-based.
As to `O=C1C=C(c2ccccc2)C(=O)c2ccccc21`, the 50% inhibitory concentration (IC50) came to 96.8 µM. Regarding `O=C1C(c2ccccc2)=CC(=O)c2c(O)cccc21`, the IC50 worked out at 115 µM. With `Cc1ccc(C2=CC(=O)c3ccccc3C2=O)cc1`, the IC50 turned out to be 185 µM. As for `O=C1C=C(c2ccc(F)cc2)C(=O)c2ccccc21`, the IC50 is > 500 µM. Take `O=C1C=C(c2ccc(Cl)cc2)C(=O)c2ccccc21`: the concentration for half-maximal inhibition (IC50) was > 1000 µM. Regarding `O=C1C=C(c2ccc(C(F)(F)F)cc2)C(=O)c2ccccc21`, the IC50 turned out to be 335 µM. For the compound `Cc1cc(C)cc(C2=CC(=O)c3ccccc3C2=O)c1`, the IC50 is > 500 µM. For the compound `O=C1C(c2cccc(I)c2)=CC(=O)c2c(O)cccc21`, the half-maximal inhibitory concentration (IC50) was 35.1 µM. `O=C1C=C(c2ccccc2O)C(=O)c2ccccc21`: the concentration for half-maximal inhibition (IC50) was determined as 163 µM. Turning to `O=C1C=C(c2ccc(I)cc2)C(=O)c2ccccc21`, the IC50 is > 500 µM. Take `O=C1C=C(c2ccccc2F)C(=O)c2ccccc21`: the half-maximal inhibitory concentration (IC50) worked out at 157 µM. In the case of `O=C1C(c2ccc(F)cc2)=CC(=O)c2c(O)cccc21`, the half-inhibitory concentration (IC50) is 71.5 µM. Still for that read-out and setting: the value for `Cc1ccc(C2=CC(=O)c3ccccc3C2=O)c(O)c1` was 72.6 µM; that for `O=C1C(c2ccc(Cl)cc2)=CC(=O)c2c(O)cccc21` was > 1000 µM.

For `Cc1cccc(C2=CC(=O)c3c(O)cccc3C2=O)c1`, the IC50 came to 95.4 µM.

For `Cc1cccc(C2=CC(=O)c3ccccc3C2=O)c1`, the 50% inhibitory concentration (IC50) was 105 µM.

Consider `O=C1C(c2ccc(C(F)(F)F)cc2)=CC(=O)c2c(O)cccc21`, for which the IC50 was 22.8 µM. `COc1ccc(C2=CC(=O)c3ccccc3C2=O)cc1`: the IC50 amounted to 303 µM. On to `Cc1cc(C)cc(C2=CC(=O)c3c(O)cccc3C2=O)c1`, for which the IC50 was > 500 µM. On to `O=C1C(c2ccc(I)cc2)=CC(=O)c2c(O)cccc21`, for which the 50% inhibitory concentration (IC50) was > 500 µM. Still for that read-out and setting: the value for `Cc1ccc(C2=CC(=O)c3c(O)cccc3C2=O)cc1` was 156 µM; that for `Cc1ccc(C)c(C2=CC(=O)c3ccccc3C2=O)c1` was 56.5 µM. Regarding `Cc1ccc(O)c(C2=CC(=O)c3ccccc3C2=O)c1`, the concentration for half-maximal inhibition (IC50) amounted to 99.2 µM. Still for that read-out and setting: the value for `CC(C)(C)c1ccc(C2=CC(=O)c3ccccc3C2=O)cc1` was 25.7 µM; that for `O=C1C=C(c2cccc(I)c2)C(=O)c2ccccc21` was 304 µM.

The test system of another test is Trypanosoma cruzi. Description: Potency index, ratio of benznidazole IC50 to test compound IC50 for trypanocidal activity against Trypanosoma cruzi Y strain bloodstream trypomastigotes isolated from infected in Albino Swiss mouse assessed as lysis of parasite in presence of 5 % mouse blood incubated for 24 hrs by Neubauer chamber method. The class given is functional.
Turning to `Cc1ccc(C2=CC(=O)c3ccccc3C2=O)c(O)c1`, the “Ratio IC50” value came out at 2.5. With `O=C1C(c2ccc(C(F)(F)F)cc2)=CC(=O)c2c(O)cccc21`, the “Ratio IC50” value stood at 4.5. Turning to `Cc1ccc(C)c(C2=CC(=O)c3ccccc3C2=O)c1`, the “Ratio IC50” value stood at 2. Regarding `CC(C)(C)c1ccc(C2=CC(=O)c3ccccc3C2=O)cc1`, the “Ratio IC50” value came out at 4.

The values are drawn from ChEMBL document CHEMBL4819141, “Ruthenium(II)- and Palladium(II)-catalyzed position-divergent CH oxygenations of arylated quinones: Identification of hydroxylated quinonoid compounds with potent trypanocidal activity” (Bioorg Med Chem, 2021).
